Data from publication PMC3958783, “Molybdenum Reduction to Molybdenum Blue in Serratia sp. Strain DRY5 Is Catalyzed by a Novel Molybdenum-Reducing Enzyme” (BioMed Research International, 2014).
Read-outs that look alike come from different tables or passages of the source.

What was measured:
Mo-reducing enzyme [1] = molecular target: T1, Mo-reducing enzyme; test: Mo blue formation assay, […] nm; type: biochemical, Serratia sp. DRY5; conditions: general reagent, assay with 12-MP and NADH; for IC50: read-out: Concentrations which decrease enzyme activity by 50%
T1 construct: native protein purified from cytoplasmic fraction (Mono Q twice, Zorbax GF-250); monomer, 105 kDa by gel filtration, 100 kDa by SDS-PAGE

Mo-reducing enzyme [2] = test system: T1, Mo-reducing enzyme; test: initial rates of Mo blue formation, absorbance at […] nm, nonlinear regression; type: biochemical, Serratia sp. DRY5; conditions: assay 50 mM citrate phosphate pH 5.0, room temperature, read-out: apparent Km

Question: For `O=C(O)CN(CCN(CC(=O)O)CC(=O)O)CC(=O)O` [EDTA], which IC50 (Mo-reducing enzyme [1]; metal chelator) is on record?
Answer: 0.1 mM

Question: With `OCCS` [2-Mercaptoethanol] as the molecule, how does the IC50 (Mo-reducing enzyme [1]; thiol) read?
Answer: 5 mM

Question: Which “Concentrations which decrease enzyme activity by 50%” value (Mo-reducing enzyme [1]; denaturing detergent) does the source give for `CCCCCCCCCCCCOS(=O)(=O)O` [SDS] here?
Answer: 0.1%

Question: Which Km (Mo-reducing enzyme [2]; 5 mM NADH, electron acceptor) does the source give for 12-MP here?
Answer: 3870 µM

Question: With `OC(CS)C(O)CS` (stereo not drawn) [DTT] as the molecule, how does the IC50 (Mo-reducing enzyme [1]; thiol) read?
Answer: 10 mM

Question: How did the Km (Mo-reducing enzyme [2]; 15 mM 12-MP, electron donor) turn out when `NC(=O)C1=CN([C@@H]2O[C@H](COP(=O)(O)OP(=O)(O)OC[C@H]3O[C@@H](n4cnc5c(N)ncnc54)[C@H](O)[C@@H]3O)[C@@H](O)[C@H]2O)C=CC1` [NADH] was run?
Answer: 790 µM
